# Data reported in US7547706B2, “1H-pyrimido[4,5-b]indole derivatives, their preparation and therapeutic use” (Sanofi-Aventis, priority 2005, dated 2009).
# Counter-ions that a name gives are not always drawn. Marks after values point to notes of the source that are not given here.
# What was measured:
# [1] = tested on: motor neurons of the facial nucleus; test: Survival of the motor neurons after sectioning the facial nerve in rats aged 4 days; assay type: in vivo, rat; conditions: via oral route, at 10 mg/kg; treated for 7 days; facial nerve lesion in 4 day old rats
# Method: Test of Survival of the Motor Neurons after Sectioning the Facial Nerve in Rats Aged 4 Days
# After lesion of the facial nerve in immature rats, the motor neurons of the facial nucleus underwent neuronal death by apoptosis. Neural survival was evaluated using histological methods and neuronal counting.
# 4 day old immature rats were anesthetized with pentobarbital (3 mg/kg by the i.p. route). The right facial nerve was exposed and sectioned, at its outlet from the stylomastoid foramen. After waking up, the young rats were returned to their mothers and treated for 7 days with one or two daily administrations, via oral or intraperitoneal route, at doses ranging from 1 to 10 mg/kg.
# 7 days after the lesion, the animals were decapitated and the brains frozen in isopentane at −40° C. The entire facial […] was cut with a cryostat into 10 μm sections. The motor neurons were colored with cresyl violet and counted using the Histo™ software (Biocom™).
# [2] = target: T1, peripheral benzodiazepine receptors (p or PBR sites) (Rattus norvegicus, UniProt P16257); test: Binding of [3H]Ro5-4864 to peripheral benzodiazepine receptors in rat kidney membranes; conditions: [3H]Ro5-4864 0.5 nM, 3 h at 0° C., read-out: IC50, concentration which inhibits 50% of the specific binding of [3H]Ro5-4864
# T1 construct: After decapitation, the kidney was removed and the tissue was homogenized; from tissue; host or cells: kidney membrane homogenate of male Sprague Dawley rats
melting point [°C],Compound,% increase of neuronal survival [1],IC50 [2] [nM]
285 to 289,Cc1cc(-c2nc(C(=O)N(C)C)c3c4ccc(Cl)cc4n(C)c3n2)cnc1C.Cl,,
289 to 291,CN(C)C(=O)c1nc(-c2cnc3c(c2)CCCC3)nc2c1c1ccc(Cl)cc1n2C.Cl,,
288 to 292,Cc1cc(-c2nc(C(=O)N(C)C)c3c4ccc(Cl)cc4n(C)c3n2)cc(C)n1.Cl,,
230 to 236,"CC(C)Cn1c2cc(Cl)ccc2c2c(C(=O)N(C)C)nc(-c3ccncc3)nc21 (as salt: HCl) [Compound 31, 7-chloro-9-isobutyl-N,N-dimethyl-2-pyridin-4-yl-9H-pyrimido[4,5-b]indole-4-carboxamide]",,
240 to 242,"CN(C)Cc1ccc(-c2nc(C(=O)N(C)C)c3c4ccc(Cl)cc4n(C)c3n2)cn1 (as salt: HCl) [Compound 47, 7-chloro-2-{6-[(dimethylamino)methyl]pyridin-3-yl}-N,N,9-trimethyl-9H-pyrimido[4,5-b]indole-4-carboxamide]",,
193 to 195,"CN(C)C(=O)c1nc(-c2ccccc2)nc2c1c1ccccc1n2C [Compound 1, N,N,9-trimethyl-2-phenyl-9H-pyrimido[4,5-b]indole-4-carboxamide]",,
,"CN(C)C(=O)c1nc(-c2ccccc2)nc2c1c1ccc(Cl)cc1n2C [Compound 2, 7-chloro-N,N,9-trimethyl-2-phenyl-9H-pyrimido[4,5-b]indole-4-carboxamide]",+25* %,2.2
229 to 231,"CN(C)C(=O)c1nc(-c2ccccc2)nc2c1c1ccc(F)cc1n2C [Compound 3, 7-fluoro-N,N,9-trimethyl-2-phenyl-9H-pyrimido[4,5-b]indole-4-carboxamide]",,
222 to 224,"CN(C)C(=O)c1nc(-c2ccccc2)nc2c1c1cc(Cl)ccc1n2C [Compound 4, 6-chloro-N,N,9-trimethyl-2-phenyl-9H-pyrimido[4,5-b]indole-4-carboxamide]",,
232 to 233,"CN(C)C(=O)c1nc(-c2ccccc2)nc2[nH]c3cc(Cl)ccc3c12 [Compound 5, 7-chloro-N,N-dimethyl-2-phenyl-9H-pyrimido[4,5-b]indole-4-carboxamide]",,
236 to 238,"CN1CCN(C(=O)c2nc(-c3ccccc3)nc3c2c2ccc(Cl)cc2n3C)CC1 [Compound 11, 7-chloro-9-methyl-4-[(4-methylpiperazin-1-yl)carbonyl]-2-phenyl-9H-pyrimido[4,5-b]indole]",,
256 to 258,"Cn1c2cc(Cl)ccc2c2c(C(=O)N3CCCC3)nc(-c3ccncc3)nc21 [Compound 14, 7-chloro-9-methyl-2-pyridin-4-yl-4-(pyrrolidin-1-ylcarbonyl)-9H-pyrimido[4,5-b]indole]",,
,"CN(C)C(=O)c1nc(-c2ccncc2)nc2c1c1ccc(Cl)cc1n2C [Compound 15, 7-chloro-N,N,9-trimethyl-2-pyridin-4-yl-9H-pyrimido[4,5-b]indole-4-carboxamide]",+40* %,3.1
283 to 284,"CN(C)C(=O)c1nc(-c2cccnc2)nc2c1c1ccc(Cl)cc1n2C [Compound 16, 7-chloro-N,N,9-trimethyl-2-pyridin-3-yl-9H-pyrimido[4,5-b]indole-4-carboxamide]",,
272 to 273,"CN(C)C(=O)c1nc(-c2cnccn2)nc2c1c1ccc(Cl)cc1n2C [Compound 18, 7-chloro-N,N,9-trimethyl-2-pyrazin-2-yl-9H-pyrimido[4,5-b]indole-4-carboxamide]",,
,"CN(C)C(=O)Cc1nc(-c2ccccc2)nc2c1c1ccc(Cl)cc1n2C [Compound 19, 2-(7-chloro-9-methyl-2-phenyl-9H-pyrimido[4,5-b]indol-4-yl)-N,N-dimethylacetamide]",+21* %,1.3
231 to 232,"CN(C)C(=O)Cc1nc(-c2ccncc2)nc2c1c1ccc(Cl)cc1n2C [Compound 21, 2-(7-chloro-9-methyl-2-pyridin-4-yl-9H-pyrimido[4,5-b]indol-4-yl)-N,N-dimethylacetamide]",,
248 to 251,"CN(C)C(=O)Cc1nc(-c2cccnc2)nc2c1c1ccc(Cl)cc1n2C [Compound 22, 2-(7-chloro-9-methyl-2-pyridin-3-yl-9H-pyrimido[4,5-b]indol-4-yl)-N,N-dimethylacetamide]",,

melting point [°C],Compound,% increase of neuronal survival [1],IC50 [2] [nM]
218 to 219,"CN(C)C(=O)c1nc(-c2ccccc2)nc2[nH]c3ccccc3c12 [Compound 23, N,N-dimethyl-2-phenyl-9H-pyrimido[4,5-b]indole-4-carboxamide]",,
139 to 140,"CCOC(=O)c1nc(-c2ccccc2)nc2c1c1ccc(Cl)cc1n2C [Compound 24, Ethyl 7-chloro-9-methyl-2-phenyl-9H-pyrimido[4,5-b]indole-4-carboxylate]",,
208 to 209,"Cn1c2cc(Cl)ccc2c2c(C(=O)O)nc(-c3ccccc3)nc21 [Compound 26, 7-chloro-9-methyl-2-phenyl-9H-pyrimido[4,5-b]indole-4-carboxylic acid]",,
267 to 268,"COc1ccc(-c2nc(C(=O)N(C)C)c3c4ccc(Cl)cc4n(C)c3n2)cn1 [Compound 28, 7-chloro-2-(6-methoxypyridin-3-yl)-N,N,9-trimethyl-9H-pyrimido[4,5-b]indole-4-carboxamide]",,
278 to 279,"COc1cc(-c2nc(C(=O)N(C)C)c3c4ccc(Cl)cc4n(C)c3n2)ccn1 [Compound 30, 7-chloro-2-(2-methoxypyridin-4-yl)-N,N,9-trimethyl-9H-pyrimido[4,5-b]indole-4-carboxamide]",,
197 to 198,"CN(C)C(=O)c1nc(C2CC2)nc2c1c1ccc(Cl)cc1n2C [Compound 32, 7-chloro-2-cyclopropyl-N,N,9-trimethyl-9H-pyrimido[4,5-b]indole-4-carboxamide]",,
193 to 195,"Cc1nc(C(=O)N(C)C)c2c3ccc(Cl)cc3n(C)c2n1 [Compound 33, 7-chloro-N,N,2,9-tetramethyl-9H-pyrimido[4,5-b]indole-4-carboxamide]",,
125 to 126,"CC(C)c1nc(C(=O)N(C)C)c2c3ccc(Cl)cc3n(C)c2n1 [Compound 34, 7-chloro-2-isopropyl-N,N,9-trimethyl-9H-pyrimido[4,5-b]indole-4-carboxamide]",,
174.5 to 175.5,"CN(C)C(=O)c1nc(C2CCOCC2)nc2c1c1ccc(Cl)cc1n2C [Compound 35, 7-chloro-N,N,9-trimethyl-2-(tetrahydro-2H-pyran-4-yl)-9H-pyrimido[4,5-b]indole-4-carboxamide]",,
275 to 276,"CN(C)C(=O)c1nc(-c2ccc(Cl)nc2)nc2c1c1ccc(Cl)cc1n2C [Compound 37, 7-chloro-2-(6-chloropyridin-3-yl)-N,N,9-trimethyl-9H-pyrimido[4,5-b]indole-4-carboxamide]",,
237 to 239,"CCOc1ccc(-c2nc(C(=O)N(C)C)c3c4ccc(Cl)cc4n(C)c3n2)cn1 [Compound 39, 7-chloro-2-(6-ethoxypyridin-3-yl)-N,N,9-trimethyl-9H-pyrimido[4,5-b]indole-4-carboxamide]",,
232 to 235,"CCc1ccc(-c2nc(C(=O)N(C)C)c3c4ccc(Cl)cc4n(C)c3n2)cn1 [Compound 40, 7-chloro-2-(6-ethylpyridin-3-yl)-N,N,9-trimethyl-9H-pyrimido[4,5-b]indole-4-carboxamide]",,
218 to 219,"CCc1cncc(-c2nc(C(=O)N(C)C)c3c4ccc(Cl)cc4n(C)c3n2)c1 [Compound 41, 7-chloro-2-(5-ethylpyridin-3-yl)-N,N,9-trimethyl-9H-pyrimido[4,5-b]indole-4-carboxamide]",,
313 to 314,"Cc1cncc(-c2nc(C(=O)N(C)C)c3c4ccc(Cl)cc4n(C)c3n2)c1 [Compound 42, 7-chloro-N,N,9-trimethyl-2-(5-methylpyridin-3-yl)-9H-pyrimido[4,5-b]indole-4-carboxamide]",,
322 to 325,"CN(C)C(=O)c1nc(-c2cncnc2)nc2c1c1ccc(Cl)cc1n2C [Compound 43, 7-chloro-N,N,9-trimethyl-2-pyrimidin-5-yl-9H-pyrimido[4,5-b]indole-4-carboxamide]",,
258 to 260,"COc1cncc(-c2nc(C(=O)N(C)C)c3c4ccc(Cl)cc4n(C)c3n2)c1 [Compound 44, 7-chloro-2-(5-methoxypyridin-3-yl)-N,N,9-trimethyl-9H-pyrimido[4,5-b]indole-4-carboxamide]",,
239 to 241,"COCc1ccc(-c2nc(C(=O)N(C)C)c3c4ccc(Cl)cc4n(C)c3n2)cn1 [Compound 45, 7-chloro-2-[6-(methoxymethyl)pyridin-3-yl]-N,N,9-trimethyl-9H-pyrimido[4,5-b]indole-4-carboxamide]",,
256 to 258,"Cc1nc(-c2nc(C(=O)N(C)C)c3c4ccc(Cl)cc4n(C)c3n2)cs1 [Compound 46, 7-chloro-N,N,9-trimethyl-2-(2-methyl-1,3-thiazol-4-yl)-9H-pyrimido[4,5-b]indole-4-carboxamide]",,
